Source: US6114537A, “Process for scavenging thiols” (Apotex Inc., priority 1997, dated 2000)
pEC50: −log10 of the molar value. Values belong to the molecule of their own block, whether it stands above or below them.

How the values were obtained:
hog H^+ /K^+ ATPase = molecular target: T1, hog H^+ /K^+ ATPase (Sus scrofa, UniProt P19156); test: Gastric ATPase enzyme inhibition assay; type: biochemical; conditions: hog gastric vesicles, K+ stimulated ATP hydrolysis
T1 construct: Potassium stimulated ATP hydrolysis using hog gastric (GI) vesicles; from tissue; host or cells: hog gastric (GI) vesicles
T1 sequence (P19156 2-1034 limits assumed): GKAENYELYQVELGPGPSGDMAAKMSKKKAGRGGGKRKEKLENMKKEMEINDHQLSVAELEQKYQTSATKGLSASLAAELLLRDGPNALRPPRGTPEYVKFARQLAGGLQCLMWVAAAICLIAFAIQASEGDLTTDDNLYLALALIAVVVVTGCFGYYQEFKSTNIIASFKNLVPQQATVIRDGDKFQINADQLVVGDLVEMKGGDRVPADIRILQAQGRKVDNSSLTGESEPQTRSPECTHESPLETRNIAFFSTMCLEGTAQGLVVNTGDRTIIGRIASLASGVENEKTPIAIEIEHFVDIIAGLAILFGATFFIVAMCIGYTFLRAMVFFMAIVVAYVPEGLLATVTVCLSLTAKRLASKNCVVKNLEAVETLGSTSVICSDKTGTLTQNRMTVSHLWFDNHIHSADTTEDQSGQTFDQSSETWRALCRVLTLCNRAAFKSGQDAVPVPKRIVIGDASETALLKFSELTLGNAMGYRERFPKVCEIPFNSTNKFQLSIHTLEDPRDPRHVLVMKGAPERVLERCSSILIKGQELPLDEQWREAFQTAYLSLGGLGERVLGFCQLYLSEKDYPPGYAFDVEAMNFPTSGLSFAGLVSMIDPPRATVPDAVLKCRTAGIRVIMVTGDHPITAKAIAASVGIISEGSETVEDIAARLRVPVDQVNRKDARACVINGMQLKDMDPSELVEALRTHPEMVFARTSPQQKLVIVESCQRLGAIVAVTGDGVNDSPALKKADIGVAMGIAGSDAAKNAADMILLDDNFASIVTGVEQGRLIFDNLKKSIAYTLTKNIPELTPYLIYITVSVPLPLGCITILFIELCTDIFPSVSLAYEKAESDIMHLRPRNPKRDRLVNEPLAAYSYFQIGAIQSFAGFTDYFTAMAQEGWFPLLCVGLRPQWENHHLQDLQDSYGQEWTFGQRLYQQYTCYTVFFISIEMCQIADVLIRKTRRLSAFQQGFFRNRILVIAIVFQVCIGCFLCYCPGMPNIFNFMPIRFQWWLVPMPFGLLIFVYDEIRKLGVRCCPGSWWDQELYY
T1 sequence (P18434 whole entry partner): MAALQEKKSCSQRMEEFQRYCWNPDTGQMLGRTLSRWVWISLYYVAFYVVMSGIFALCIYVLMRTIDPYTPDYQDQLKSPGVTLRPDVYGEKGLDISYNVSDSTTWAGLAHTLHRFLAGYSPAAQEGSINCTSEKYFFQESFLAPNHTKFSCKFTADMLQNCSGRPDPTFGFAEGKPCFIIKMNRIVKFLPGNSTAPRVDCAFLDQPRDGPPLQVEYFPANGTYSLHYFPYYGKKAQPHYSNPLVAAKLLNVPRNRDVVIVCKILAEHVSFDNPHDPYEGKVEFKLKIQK
Protocol: Gastric ATPase enzyme inhibition assay
The enzyme used is the hog H^+ /K^+ ATPase (Sachs, et al. J. Biol. Chem. 251:7690-7698, 1976). A modified procedure reported by Yoda A. and Hokin, L.E., Biochem. Res. Commun., 1970, 800-884 is used. Potassium stimulated ATP hydrolysis using hog gastric (GI) vesicles, a preparation enriched in H^+ /K^+ ATPase, is measured.
The difference between activity in the presence of Mg^++ and presence of Mg^++ and K^+ 0 is taken as enzyme activity. Nigericin, a K^+ ionophore, is also present in the (+)K^+ incubation mixture to provide access of K^+ to the vesicle interior. Hydrolysis activity is measured by quantitative analysis of a phosphomolybdate complex. […] The optical density of many drugs used for the inhibition of H^+ /K^+ ATPase interfere in this wavelength. Therefore, a modification of the as say was used wherein the phosphomolybdate complex was reduced with Fiske and Subbarow reducer (1-amino-2-naphthol-4-[…] plus sodium sulfite). This shifts the optical density from 3 20 nm for the oxidized phosphomolybdate complex to 600-700 nm. This modification has the added advantage of providing a means of automated assay when multiple samples being tested. In this modification, the optical density of the assay mixtures was read at 700 nm.
Basal Mg^++ levels are measured in […], 2 mM Na2 ATP, 40 mM Pipes-tris, pH 6.10. 20 mM KCl and 10 μg/ml nigericin is added to determine the extent of stimulation by K^+. Test compounds or vehicle are then added. Enzyme (10 μg/ml) is then added to initiate the reaction. The final volume is 200 μl. The protocol for these assays is shown below.
Zero blanks (water controls) and phosphate standards (200 μl) are added appropriate for assays used: […], 0.050, 0.075, 0.1 . . . 0.5 mM standards. The order of the addition of reagents generally follows as described above. However, it may be more preferable to add either enzyme before ATP if it is important to provide time for pre-cubation with test compounds. Time additions of the last reagent are used to provide a uniform assay time.
The reaction is run for 30 min. to 1 hour. The re action is stopped by addition of 50 μl of a solution prepared by adding 4 volumes of 2.5 M sulfric acid plus one volume of 1.25% (w/v) Fiske and Subbarow reagent. Colour is developed at room temperature for ten minutes and optical density at 700 nm is determined. In the event that a white precipitate forms, the clear supernatants (after mixing and setting) can be used for the determination of enzyme activity.

[1] = tested on: gastric acid secretion, isolated gastric glands; test: In vitro inhibition of gastric acid secretion in isolated mouse gastric glands (14C-aminopyrine accumulation); type: cell-based; conditions: 100 μM
Protocol: Acid secretion is measured indirectly by the accumulation of the weak base ^14 C-aminopyrine in the isolated murine gastric glands of mouse. The assay is performed in polypropylene eppendorf tubes containing 0.5 mL of resuspended mouse gastric glands. In addition, tubes contain the tested drug, acid secretagogues (e.g. histamine, di-butyryl cyclic AMP (cAMP), carbachol) and ^14 C-aminopyrine. Tubes are incubated for 60 min. at 37° C. and continuously rotated. The reaction is stopped by centrifugation of the gland suspension for five min. at 1500 g. Supernatant is aspirated leaving the pellet containing intact gastric glands. The pellet is washed extensively and digested overnight in 1 mL of Protosol (Amersham). After neutralisation with acetic acid and addition of scintillation fluid, the radioactivity is counted in a beta-counter (Beckman). The amount of radioactivity trapped in the pellet corresponds directly with the amount of acid being secreted. Each experimental point is done in triplicate. In each experiment, energy independent consumption was estimated with 0.1 mM of dinitrophenol and basal acid secretion in the absence of acid stimulants. These values were then subtracted from corresponding results in order to calculate basal or secretagogue stimulated acid secretion. […] Each experiment is repeated a number of times and all results are expressed as a % of the maximum stimulation.

Papain = molecular target: T2, Papain (Carica papaya, UniProt P00784); test: Inhibition of Papain, enzyme assay and kinetic measurements; type: biochemical; conditions: for kinact/KI: approximates kon, read-out: kabs /[inh] (papain); for inhibition at 200 µM: steady state, 200 μM [inhibitor] (printed 200 μm)
T2 sequence (P00784 134-345): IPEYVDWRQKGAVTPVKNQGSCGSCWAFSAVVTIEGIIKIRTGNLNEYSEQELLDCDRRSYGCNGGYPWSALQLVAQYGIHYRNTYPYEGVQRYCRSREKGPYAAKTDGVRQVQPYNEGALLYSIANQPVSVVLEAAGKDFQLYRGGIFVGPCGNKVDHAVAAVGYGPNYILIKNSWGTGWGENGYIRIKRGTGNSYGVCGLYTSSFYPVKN
Excerpt: (§1) Inhibition of Cathepsin B, Cathepsin L and Papain by 1,2,4-thiadiazoles and 1,2,4-thiadiazole[4,5-a]benzimidazole derivatives: Enzyme Assays and Kinetic Measurements
(§2) Conditions for the above experiments can be found in the following references: Menard R. et al., Biochemistry 1990, 29, 6706-6713; Fox T. et al., Biochemistry 1992, 31, 12571-12576; Cannona E. et al., Biochemistry 1996, 35, 8149-8157. A typical experiment consisted of choosing an inhibitor concentration such that maximum inhibition could be achieved in less than two hours, monitoring the complete progress curve (i.e. fluorescence vs time), and analyzing the data. The analysis yield two parameters: the % inhibition once steady state was re ached, and a rate constant which represents the rate at which this steady state is reached. Typically, the enzyme activity decreases with time until the maximum level of inhibition is reached (i.e. steady state) where the enzyme activity remains constant. Since significant levels of activity could still be detected at steady state (i.e. inhibition is not complete), the data was fitted to equation (1), which is normally used for slow-binding reversible inhibitors. [formula]
(§3) % inhibition=(1-v1 /vo).100 (2)
(§4) In this equation, [P] represents the concentration of product (obtained from the flourescene readings), kabs is the first order rate constant to reach steady state, vo is the initial rate which corresponds to the rate in the absence of the inhibitor, and vi is the rate of the inhibited enzyme at steady state. The % inhibition was obtained by using equation (2), where the rate measured in the absence of the inhibitor was used for vo. An example of a simple mechanism for such a process is given below: [formula] For this mechanism, the value of kabs determined experimentally would correspond to:
(§5) The value of kabs varies with inhibitor concentration. Often koff is much slower than kon [inh] and kabs /[inh] can be used to approximate kon. This approach is used in this study and the results are shown in below: […]

Cathepsin B = Cathepsin B (Rattus norvegicus, UniProt P00787); test: Inhibition of Cathepsin B, enzyme assay and kinetic measurements; type: biochemical; conditions: for kinact/KI: approximates kon, read-out: kabs /[inh] (cathepsin B); for inhibition at 200 µM: steady state, 200 μM [inhibitor]
Chain of Cathepsin B (P00787 80-339): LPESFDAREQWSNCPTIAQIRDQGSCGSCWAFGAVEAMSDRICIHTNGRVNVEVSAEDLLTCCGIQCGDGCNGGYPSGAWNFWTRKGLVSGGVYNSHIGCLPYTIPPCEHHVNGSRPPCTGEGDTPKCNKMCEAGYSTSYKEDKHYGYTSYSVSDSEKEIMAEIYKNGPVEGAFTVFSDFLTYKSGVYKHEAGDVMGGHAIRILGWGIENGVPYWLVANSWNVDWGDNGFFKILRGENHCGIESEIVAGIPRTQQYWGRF
Excerpt: as §1, §2, §3, §4, §5

Cathepsin L = Cathepsin L (Homo sapiens, UniProt P07711); test: Inhibition of Cathepsin L, enzyme assay and kinetic measurements; type: biochemical; conditions: for kinact/KI: approximates kon, read-out: kabs /[inh] (cathepsin L); for inhibition at 200 µM: steady state
Chain of Cathepsin L (P07711 114-333): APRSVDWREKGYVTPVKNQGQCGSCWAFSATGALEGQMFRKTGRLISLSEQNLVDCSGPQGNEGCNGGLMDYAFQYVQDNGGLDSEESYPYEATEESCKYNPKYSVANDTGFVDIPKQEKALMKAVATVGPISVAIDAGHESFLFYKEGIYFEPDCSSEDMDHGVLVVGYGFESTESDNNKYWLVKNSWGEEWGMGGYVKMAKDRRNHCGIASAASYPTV
Excerpt: as §1, §2, §3, §4, §5

[2] = Reaction with phenethyl mercaptan (thiol model for the H+/K+-ATPase); type: physicochemical; conditions: in methanol
Excerpt: The reactivity of the compounds in the process of the invention can be illustrated by means of their reaction with phenethyl mercaptan. This is generally illustrated in FIG. 1 of the accompanying drawings, with R of the thiol reagent representing a phenethyl group. In addition, based on prior art (Im et al., J. Biol. Chem., 1985, 260, 4591; Sturm et al., J. Org. Chem., 1987, 52, 4573; Lorentzon et al., Biochim., Biophys. Acta, 1985, 817, 25), phenethylmercaptan is useful as a model for the H^+ /K^+ -ATPase to examine the reactivity of compounds towards thiol group(s) of the enzyme. […] The compound of formula XI reacts with an additional mole of phenethyl mercaptan to produce a compound of formula XII which decomposes to give compounds of formula XIII and XIV.
A minimum of two moles of phenethyl mercaptan for 1 mole of substrate is required to effect the ring opening of 1,2,4-thiadiazolo[4,5-a]benzimidazoles to give the compound of formula XII. In general, the ring opening reaction is slow with two moles of phenethyl mercaptan. The reaction rate increases rapidly when a large excess of phenethyl mercaptan (for example, 25 fold) is used. […] This degradation of the trapped thiol intermediate to form the disulfide has also been observed in the chemical model for the H^+ /K^+ -ATPase (Lindberg et al., J. Med. Chem., 1986, 29, 1329). […]

[3] = Acid stability in 6 molar hydrochloric acid; type: physicochemical; conditions: room temperature
Protocol: Acid stability of 7-methoxy-3-[(4-methoxy-3,5-dimethyl-2-pyridyl)oxomethyl]-1,2,4-thiadiazolo[4,5-a]benzimidazole.
To examine acid stability of the captioned compound, the compound was dissolved in a minimum volume of methanol and the resulting solution was added to a 6 molar solution of hydrochloric acid.

Compound: c1ccc2c(c1)nc1snc(N3CCNCC3)n12 [3-(1-piperazinyl)-1,2,4-thiadiazolo[4,5-a]benzimidazole]
pEC50 (hog H^+ /K^+ ATPase): 6.00

Compound: CN1CCN(c2nsc3nc4ccccc4n23)CC1.Cl.Cl [3-(4-methyl-1-piperazinyl)-1,2,4-thiadiazolo [4,5-a]benzimidazole dihydrochloride]
inhibition of cAMP stimulated acid secretion ([1]; cAMP stimulated): completely inhibited
inhibition of histamine stimulated acid secretion ([1]; histamine stimulated): completely inhibited

Compound: CN1CCN(c2nsc3nc4ccccc4n23)CC1 [3-(4-methyl-1-piperazinyl)-1,2,4-thiadiazolo-[4,5-a]benzimidazole]
kinact/KI (Papain): 28 M⁻¹ s⁻¹
inhibition at 200 µM (Papain): 99%
kinact/KI (Cathepsin B): 19 M⁻¹ s⁻¹
inhibition at 200 µM (Cathepsin B): 68%
pEC50 (hog H^+ /K^+ ATPase): 5.70
kinact/KI (Cathepsin L): 24 M⁻¹ s⁻¹
inhibition at 200 µM (Cathepsin L; 200 μM [inhibitor] (printed 200 μm)): 98%

Compound: c1ccc2c(c1)nc1snc(CN3CCOCC3)n12 [3-(morpholinomethyl)-1,2,4-thiadiazolo[4,5-a]benzimidazole]
kinact/KI (Papain): 7 M⁻¹ s⁻¹
inhibition at 200 µM (Papain): 92%
kinact/KI (Cathepsin B): 8 M⁻¹ s⁻¹
inhibition at 200 µM (Cathepsin B): 60%
pEC50 (hog H^+ /K^+ ATPase): 6.70
kinact/KI (Cathepsin L): 7 M⁻¹ s⁻¹
inhibition at 200 µM (Cathepsin L; 200 μM [inhibitor], % sign not given): 80%

Continued, values first:

pEC50 (hog H^+ /K^+ ATPase): 6.70
Compound: c1ccc2c(c1)nc1snc(NCCN3CCOCC3)n12 [3-[2-(N-morpholino)ethylamino]l,2,4-thiadiazolo-[4,5-a]benzimidazole]

time to complete reaction with phenethyl mercaptan [2]: ≤ 1 min
Compound: CN(C)c1nsc2nc3ccccc3n12 [Me2 N, 3-(dimethylamino)-1,2,4-thiadiazolo[4,5-a]benzimidazole]

time to complete reaction with phenethyl mercaptan [2]: ≤ 1 min
Compound: COc1nsc2nc3ccccc3n12 [MeO, 3-methoxy-1,2,4-thiadiazolo[4,5-a]benzimidazole]

acid stability [3]: complete decomposition in a few minutes
Compound: COc1ccc2[nH]c([S+]([O-])Cc3ncc(C)c(OC)c3C)nc2c1 (stereo not drawn) [Omeprazole, reference compound]
